Data published in US20250312499A1, “KISSPEPTIN RECEPTOR (KISS1R) TARGETED THERAPEUTICS AND USES THEREOF” (priority 2024, published 2025).
Square brackets hold non-standard residues; d marks the D form. Peptide text beside a SMILES is read from it. * marks the point of attachment. DOTA = O=C(O)CN1CCN(CC(=O)O)CCN(CC(=O)*)CCN(CC(=O)O)CC1; Ala(9-anthryl) = N[C@@H](Cc1c2ccccc2cc2ccccc12)C(=O)O; Gly(N-(3-F-4-Me-benzyl)) = Cc1ccc(CNCC(=O)*)cc1F; Butanoyl(4-(4-I-phenyl)) = O=C(CCCc1ccc(I)cc1)*; Gly(N-3-F-4-Me-benzyl) = Cc1ccc(CNCC(=O)O)cc1F; Api(1-amidino) = N=C(N)N1CCC(N)(C(=O)O)CC1; Hydrocinnamoyl(4-I) = O=C(CCc1ccc(I)cc1)*; HO(CH2CH2O)2CH2CH2CO = O=C(CCOCCOCCO)*; 2Nal = N[C@@H](Cc1ccc2ccccc2c1)C(=O)O; d2Nal = N[C@H](Cc1ccc2ccccc2c1)C(=O)O; Hyp = O=C(O)[C@@H]1C[C@@H](O)CN1; 4Pal = N[C@@H](Cc1ccncc1)C(=O)O; d4Pal = N[C@H](Cc1ccncc1)C(=O)O; 4Amb = NCc1ccc(C(=O)O)cc1; Nle = CCCC[C@H](N)C(=O)O; Api = NC1(C(=O)O)CCNCC1; PEG2 = NCCOCCOCCC(=O)O; AEEA = NCCOCCOCC(=O)O; Ahx = NCCCCCC(=O)O; azaGly = NNC(=O)O; Sar = CNCC(=O)O

What follows are compounds tested against human kisspeptin receptor (Homo sapiens (Human), UniProt Q969F8) (assay: Human KISS1R binding assay (membrane competition binding)). Settings: 90 min at room temperature; competition with 0.2 nM [125I]-metastin (45-54); Flp-In T-Rex 293 kisspeptin membranes; metal complexes nonradioactive Ga, In, Lu; read-out: hKiSSR Binding Ki (90 min).
human kisspeptin receptor, sequence (Q969F8 whole entry): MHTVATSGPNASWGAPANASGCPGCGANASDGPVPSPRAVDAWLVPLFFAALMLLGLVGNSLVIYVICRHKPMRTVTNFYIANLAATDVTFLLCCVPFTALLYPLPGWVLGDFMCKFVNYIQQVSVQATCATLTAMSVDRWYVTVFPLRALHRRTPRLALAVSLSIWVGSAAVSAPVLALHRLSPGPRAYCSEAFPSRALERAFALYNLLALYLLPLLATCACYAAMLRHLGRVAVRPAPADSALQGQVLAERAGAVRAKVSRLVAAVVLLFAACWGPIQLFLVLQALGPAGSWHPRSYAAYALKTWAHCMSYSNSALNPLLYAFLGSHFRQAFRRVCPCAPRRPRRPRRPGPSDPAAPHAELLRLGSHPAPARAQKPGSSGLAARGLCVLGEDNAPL
Method in brief: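 Membranes from tetracycline-induced (48 h) Flp-In T-Rex 293 cells expressing receptor, 5–10 μg, incubated 90 min at room temperature with 0.2 nM [125I]-metastin (45-54) and competitor (typically 0–10,000 nM) in Tris/Mg/Ca/EGTA/0.1% BSA, pH 7.4. Filtration, washing, counting; Ki by non-linear regression.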

SMILES | Ki [µM]
CC(C)C[C@H](NC(=O)NNC(=O)[C@H](Cc1ccccc1)NC(=O)[C@@H](NC(=O)[C@H](CC(N)=O)NC(=O)[C@H](CCCCNC(=O)CN1CCN(CC(=O)O)CCN(CC(=O)O)CCN(CC(=O)O)CC1)NC(=O)[C@@H](Cc1ccc(O)cc1)NC(=O)CCc1ccc(I)cc1)[C@@H](C)O)C(=O)NC1(C(=O)N[C@@H](Cc2c[nH]c3ccccc23)C(N)=O)CCN(C(=N)N)CC1 [Compound 321] ({Hydrocinnamoyl(4-I)}-[dY]K(DOTA)NTF[azaGly]L[Api(1-amidino)]W-NH2) | < 0.01
Cc1ccc(CNCC(=O)N2CCC(NC(=O)[C@H](CC(C)C)NC(=O)NNC(=O)[C@H](Cc3ccccc3)NC(=O)[C@@H](NC(=O)[C@H](CC(N)=O)NC(=O)[C@H](Cc3ccc4ccccc4c3)NC(=O)[C@@H](Cc3ccc(O)cc3)NC(=O)COCCOCCNC(=O)CN3CCN(CC(=O)O)CCN(CC(=O)O)CCN(CC(=O)O)CC3)[C@@H](C)O)(C(=O)N[C@@H](Cc3c[nH]c4ccccc34)C(N)=O)CC2)cc1F [Compound 58] ({DOTA-AEEA}-[dY][2Nal]NTF[azaGly]L[Api](Gly(N-(3-F-4-Me-benzyl)))W-NH2) | < 0.01
CC(C)C[C@H](NC(=O)NNC(=O)[C@H](Cc1ccccc1)NC(=O)[C@@H](NC(=O)[C@H](CC(N)=O)NC(=O)[C@@H]1C[C@@H](O)CN1C(=O)[C@@H](Cc1ccc(O)cc1)NC(=O)CCCCCNC(=O)CN1CCN(CC(=O)O)CCN(CC(=O)O)CCN(CC(=O)O)CC1)[C@@H](C)O)C(=O)NC1(C(=O)N[C@@H](Cc2c[nH]c3ccccc23)C(N)=O)CCN(C(=N)N)CC1 [Compound 311] ({DOTA-Ahx}-[dY][Hyp]NTF[azaGly]L[Api(1-amidino)]W-NH2) | < 0.01
CC(C)C[C@H](NC(=O)NNC(=O)[C@H](Cc1ccccc1)NC(=O)[C@@H](NC(=O)[C@H](CC(N)=O)NC(=O)[C@@H](Cc1ccc2ccccc2c1)NC(=O)[C@@H](Cc1ccc(O)cc1)NC(=O)CCOCCOCCNC(=O)CCc1ccc(I)cc1)[C@@H](C)O)C(=O)NC1(C(=O)N[C@@H](Cc2c[nH]c3ccccc23)C(N)=O)CCN(C(=N)N)CC1 [Compound 394] ({Hydrocinnamoyl(4-I)-PEG2}-[dY][d2Nal]NTF[azaGly]L[Api(1-amidino)]W-NH2) | < 0.01
CCCC[C@H](NC(=O)NNC(=O)[C@H](Cc1ccccc1)NC(=O)[C@@H](NC(=O)[C@H](CC(N)=O)NC(=O)[C@H](Cc1c2ccccc2cc2ccccc12)NC(=O)[C@@H](Cc1ccc(O)cc1)NC(=O)CN1CCN(CC(=O)O)CCN(CC(=O)O)CCN(CC(=O)O)CC1)[C@@H](C)O)C(=O)NC1(C(=O)N[C@@H](Cc2ccncc2)C(N)=O)CCN(C(=N)N)CC1 [Compound 123] ({DOTA}-[dY][Ala(9-anthryl)]NTF[azaGly][Nle][Api(1-amidino)][4Pal]-NH2) | > 0.1
CC(C)C[C@H](NC(=O)NNC(=O)[C@H](Cc1ccccc1)NC(=O)c1ccc(CNC(=O)[C@H](Cc2ccc3ccccc3c2)NC(=O)[C@@H](Cc2ccc(O)cc2)NC(=O)CN2CCN(CC(=O)O)CCN(CC(=O)O)CCN(CC(=O)O)CC2)cc1)C(=O)NC1(C(=O)N[C@@H](Cc2ccccc2)C(N)=O)CCN(C(=N)N)CC1 [Compound 288] ({DOTA}-[dY][2Nal][4Amb]F[azaGly]L[Api(1-amidino)]F-NH2) | < 0.01
CC(C)C[C@H](NC(=O)NNC(=O)[C@H](Cc1ccccc1)NC(=O)[C@@H](NC(=O)[C@H](CC(N)=O)NC(=O)[C@@H](Cc1ccc2ccccc2c1)NC(=O)[C@@H](Cc1ccc(O)cc1)NC(=O)CCCCCNC(=O)CN1CCN(CC(=O)O)CCN(CC(=O)O)CCN(CC(=O)O)CC1)[C@@H](C)O)C(=O)NC1(C(=O)N[C@H](Cc2c[nH]c3ccccc23)C(N)=O)CCNCC1 [Compound 339] ({DOTA-Ahx}-[dY][d2Nal]NTF[azaGly]L[Api][dW]-NH2) | < 0.01
Cc1ccc(CNCC(=O)N2CCC(NC(=O)[C@H](CC(C)C)n3cc([C@H](Cc4ccccc4)NC(=O)CCCCCNC(=O)CN4CCN(CC(=O)O)CCN(CC(=O)O)CCN(CC(=O)O)CC4)nn3)(C(=O)N[C@@H](Cc3c[nH]c4ccccc34)C(N)=O)CC2)cc1F [Compound 9] | < 0.01
Cc1ccc(CNCC(=O)N2CCC(NC(=O)[C@H](CC(C)C)NC(=O)NNC(=O)[C@H](Cc3ccccc3)NC(=O)[C@@H](NC(=O)[C@H](CC(N)=O)NC(=O)[C@@H](CCCCNC(=O)CN3CCN(CC(=O)O)CCN(CC(=O)O)CCN(CC(=O)O)CC3)NC(=O)CCOCCOCCO)[C@@H](C)O)(C(=O)N[C@@H](Cc3ccncc3)C(N)=O)CC2)cc1F [Compound 254] ({HO(CH2CH2O)2CH2CH2CO}-[dK](DOTA)NTF[azaGly]L[Api](Gly(N-(3-F-4-Me-benzyl)))[4Pal]-NH2) | < 0.01
CNCC(=O)N1CCC(NC(=O)[C@H](CC(C)C)NC(=O)NNC(=O)[C@H](Cc2ccccc2)NC(=O)[C@@H](NC(=O)[C@H](CC(N)=O)NC(=O)[C@H](CCCCNC(=O)CN2CCN(CC(=O)O)CCN(CC(=O)O)CCN(CC(=O)O)CC2)NC(=O)[C@@H](Cc2ccc(O)cc2)NC(=O)CNCc2ccc(C)c(F)c2)[C@@H](C)O)(C(=O)N[C@H](Cc2c[nH]c3ccccc23)C(N)=O)CC1 [Compound 360] (H-[Gly(N-3-F-4-Me-benzyl)][dY]K(DOTA)NTF[azaGly]L[Api](Sar)[dW]-NH2) | < 0.01
CC(C)C[C@H](NC(=O)NNC(=O)[C@H](Cc1ccccc1)NC(=O)[C@@H](NC(=O)[C@H](CC(N)=O)NC(=O)[C@@H](Cc1ccc2ccccc2c1)NC(=O)[C@@H](Cc1ccc(O)cc1)NC(=O)[C@@H](CCCCNC(=O)CCCc1ccc(I)cc1)NC(=O)CCCCCNC(=O)CN1CCN(CC(=O)O)CCN(CC(=O)O)CCN(CC(=O)O)CC1)[C@@H](C)O)C(=O)NC1(C(=O)N[C@@H](Cc2c[nH]c3ccccc23)C(N)=O)CCN(C(=N)N)CC1 [Compound 336] ({DOTA-Ahx}-[dK](Butanoyl(4-(4-I-phenyl)))[dY][d2Nal]NTF[azaGly]L[Api(1-amidino)]W-NH2) | < 0.01
CC(C)C[C@H](NC(=O)NNC(=O)[C@H](Cc1ccccc1)NC(=O)[C@@H](NC(=O)[C@H](CC(N)=O)NC(=O)[C@@H](Cc1ccc2ccccc2c1)NC(=O)[C@@H](Cc1ccc(O)cc1)NC(=O)CCCCCNC(=O)[C@@H](CCCCNC(=O)CCCc1ccc(I)cc1)NC(=O)CCCCCNC(=O)CN1CCN(CC(=O)O)CCN(CC(=O)O)CCN(CC(=O)O)CC1)[C@@H](C)O)C(=O)NC1(C(=O)N[C@@H](Cc2c[nH]c3ccccc23)C(N)=O)CCN(C(=N)N)CC1 [Compound 337] ({DOTA-Ahx}-[dK](Butanoyl(4-(4-I-phenyl)))[Ahx][dY][d2Nal]NTF[azaGly]L[Api(1-amidino)]W-NH2) | < 0.01
Cc1ccc(CNCC(=O)N2CCC(NC(=O)[C@H](CC(C)C)NC(=O)NNC(=O)[C@H](Cc3ccccc3)NC(=O)[C@@H](NC(=O)[C@H](CC(N)=O)NC(=O)[C@@H](Cc3ccncc3)NC(=O)[C@@H](Cc3ccc(O)cc3)NC(=O)CN3CCN(CC(=O)O)CCN(CC(=O)O)CCN(CC(=O)O)CC3)[C@@H](C)O)(C(=O)N[C@@H](Cc3c[nH]c4ccccc34)C(N)=O)CC2)cc1F [Compound 23] ({DOTA}-[dY][d4Pal]NTF[azaGly]L[Api](Gly(N-(3-F-4-Me-benzyl)))W-NH2) | < 0.01
CC(C)C[C@H](NC(=O)NNC(=O)[C@H](Cc1ccccc1)NC(=O)[C@@H](NC(=O)[C@H](CC(N)=O)NC(=O)[C@H](Cc1c2ccccc2cc2ccccc12)NC(=O)[C@@H](Cc1ccc(O)cc1)NC(=O)CCCCCNC(=O)CN1CCN(CC(=O)O)CCN(CC(=O)O)CCN(CC(=O)O)CC1)[C@@H](C)O)C(=O)NC1(C(=O)N[C@@H](Cc2c[nH]c3ccccc23)C(N)=O)CCN(C(=N)N)CC1 [Compound 184] ({DOTA-Ahx}-[dY][Ala(9-anthryl)]NTF[azaGly]L[Api(1-amidino)]W-NH2) | < 0.01
